Laboratory results as given in PubChem BioAssay AID330 (DTP/NCI, 2004).
Values joined by “and” are separate entries in the source; they are usually repeats but may differ in a detail not shown here. Equal values may be shown once. Inconclusive results and toxic doses are left out.

Tested on: P388 leukemia ip, CD2F1 mice, survival T/C
Test: NCI In Vivo Anticancer Drug Screen. Data for tumor model P388 Leukemia (intraperitoneal) in CD2F1 (CDF1) mice
Settings: endpoint: median survival time, higher = longer survival
Summary of the method: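 Mice carrying the transplanted tumor received test compound or vehicle. Survival was recorded in each group, and the value is the treated-group measurement divided by that of the vehicle-treated control group.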

[1] = dose: 50.0 mg/kg/injection, schedule: Q01DX009 (ip), vehicle: saline
[2] = dose: 100.0 mg/kg/injection, schedule: Q01DX009 (ip), vehicle: saline
[3] = dose: 200.0 mg/kg/injection, schedule: Q01DX009 (ip), vehicle: saline
[4] = dose: 60.0 mg/kg/injection, schedule: Q01DX005 (ip), vehicle: saline with Tween-80
[5] = dose: 50.0 mg/kg/injection, schedule: Q01DX005 (ip), vehicle: saline with Tween-80
[6] = dose: 100.0 mg/kg/injection, schedule: Q01DX005 (ip), vehicle: saline with Tween-80
[7] = dose: 200.0 mg/kg/injection, schedule: Q01DX005 (ip), vehicle: saline with Tween-80
[8] = dose: 120.0 mg/kg/injection, schedule: Q01DX005 (ip), vehicle: saline with Tween-80
[9] = dose: 240.0 mg/kg/injection, schedule: Q01DX005 (ip), vehicle: saline with Tween-80
[10] = dose: 100.0 mg/kg/injection, schedule: Q04DX002 (ip), vehicle: saline with Tween-80
[11] = dose: 200.0 mg/kg/injection, schedule: Q04DX002 (ip), vehicle: saline with Tween-80
[12] = dose: 100.0 mg/kg/injection, schedule: Q01DX009 (ip), vehicle: saline with Tween-80

O=C(OCCO)N1CCN(C(=O)OCCO)CC1
T/C [1]: 101 % of control | T/C [2]: 103 % of control | T/C [3]: 101 % of control | T/C (dose: 400.0 mg/kg/injection, schedule: Q01DX009 (ip), vehicle: saline): 98 % of control

COc1ccc(C2C3=C(CCCC3=O)Oc3cc4c(cc32)OCO4)cc1 (configuration not stated)
T/C (dose: 7.5 mg/kg/injection, schedule: Q01DX005 (ip), vehicle: saline with Tween-80): 100 % of control | T/C (dose: 15.0 mg/kg/injection, schedule: Q01DX005 (ip), vehicle: saline with Tween-80): 94 % of control | T/C (dose: 30.0 mg/kg/injection, schedule: Q01DX005 (ip), vehicle: saline with Tween-80): 92 % of control | T/C [4]: 90 % of control and 91 % of control

O=C1CCCCCCCCCCC1[N+](=O)[O-] (configuration not stated)
T/C [5]: 95 % of control | T/C [6]: 92 % of control | T/C [7]: 93 % of control

N=c1nc(N)nc2c3cc(Br)ccc3nnn12
T/C [4]: 113 % of control | T/C [8]: 117 % of control | T/C [9]: 108 % of control

O=C1OC(COCc2ccccc2)C/C1=C\c1ccc2c(c1)OCO2 (configuration not stated)
T/C [10]: 95 % of control | T/C [11]: 86 % of control | T/C (dose: 400.0 mg/kg/injection, schedule: Q04DX002 (ip), vehicle: saline with Tween-80): 86 % of control

CN(C)C1=NC1(C)C
T/C [1]: 100 % of control | T/C [2]: 102 % of control | T/C [3]: 91 % of control

CCS/C(C#N)=C(/C)c1ccccc1
T/C [5]: 101 % of control | T/C [6]: 106 % of control | T/C [7]: 108 % of control

O=c1cc(-c2ccccc2)[nH]c2c1CCCC2
T/C [12]: 116 % of control | T/C (dose: 400.0 mg/kg/injection, schedule: Q01DX009 (ip), vehicle: saline with Tween-80): 176 % of control and 186 % of control

Nc1nc2c(C(=O)c3ccco3)nnn2c2cccc(Cl)c12
T/C [4]: 100 % of control | T/C [8]: 104 % of control | T/C [9]: 104 % of control

C/C=C1/CN2CCc3c4n(c5ccccc35)[C@H](C(=O)OC)[C@H]1C[C@@H]42
T/C (dose: 12.5 mg/kg/injection, schedule: Q01DX005 (ip), vehicle: acid diluted with saline): 107 % of control | T/C (dose: 25.0 mg/kg/injection, schedule: Q01DX005 (ip), vehicle: acid diluted with saline): 94 % of control | T/C (dose: 50.0 mg/kg/injection, schedule: Q01DX005 (ip), vehicle: acid diluted with saline): 98 % of control | T/C (dose: 100.0 mg/kg/injection, schedule: Q01DX005 (ip), vehicle: acid diluted with saline): 100 % of control

COC(OC)C1(C)NC(=O)NC1=O (configuration not stated)
T/C (dose: 50.0 mg/kg/injection, schedule: Q01DX009 (ip), vehicle: Klucel (hydroxypropylcellulose) (HPC)): 102 % of control | T/C (dose: 100.0 mg/kg/injection, schedule: Q01DX009 (ip), vehicle: Klucel (hydroxypropylcellulose) (HPC)): 103 % of control | T/C (dose: 100.0 mg/kg/injection, schedule: Q04DX003 (ip), vehicle: Klucel (hydroxypropylcellulose) (HPC)): 95 % of control | T/C (dose: 200.0 mg/kg/injection, schedule: Q01DX009 (ip), vehicle: Klucel (hydroxypropylcellulose) (HPC)): 93 % of control | T/C (dose: 200.0 mg/kg/injection, schedule: Q04DX003 (ip), vehicle: Klucel (hydroxypropylcellulose) (HPC)): 98 % of control | T/C (dose: 400.0 mg/kg/injection, schedule: Q04DX003 (ip), vehicle: Klucel (hydroxypropylcellulose) (HPC)): 100 % of control

COc1cc2c(cc1OC)C13CC(=O)N(C(C)=O)N1CCCN3C2=O (configuration not stated)
T/C (dose: 30.0 mg/kg/injection, schedule: Q01DX005 (ip), vehicle: Klucel (hydroxypropylcellulose) (HPC)): 106 % of control | T/C (dose: 60.0 mg/kg/injection, schedule: Q01DX005 (ip), vehicle: Klucel (hydroxypropylcellulose) (HPC)): 97 % of control | T/C (dose: 120.0 mg/kg/injection, schedule: Q01DX005 (ip), vehicle: Klucel (hydroxypropylcellulose) (HPC)): 91 % of control and 97 % of control | T/C (dose: 240.0 mg/kg/injection, schedule: Q01DX005 (ip), vehicle: Klucel (hydroxypropylcellulose) (HPC)): 88 % of control

COC(=O)c1ccnc(C(=O)OC)c1
T/C (dose: 50.0 mg/kg/injection, schedule: Q01DX001 (ip), vehicle: saline): 86 % of control | T/C (dose: 100.0 mg/kg/injection, schedule: Q01DX001 (ip), vehicle: saline): 95 % of control | T/C (dose: 200.0 mg/kg/injection, schedule: Q01DX001 (ip), vehicle: saline): 100 % of control

Cc1ccc(NC(=O)Oc2ccc(C(C)(C)C)cc2Br)c([N+](=O)[O-])c1
T/C (dose: 50.0 mg/kg/injection, schedule: Q01DX009 (ip), vehicle: saline with Tween-80): 96 % of control | T/C [12]: 97 % of control | T/C (dose: 200.0 mg/kg/injection, schedule: Q01DX009 (ip), vehicle: saline with Tween-80): 101 % of control

Nc1ccc(CCCC(=O)NCc2cccnc2)cc1
T/C [4]: 106 % of control | T/C [8]: 96 % of control | T/C [9]: 91 % of control

COC1=C(C)C(=O)C2=C(C1=O)C1C3CC4=C(C(=O)C(OC)=C(C)C4=O)C(CNC(=O)C(C)O)N3C(C#N)C(C2)N1C (configuration not stated)
T/C (dose: 2.5 mg/kg/injection, schedule: Q01DX005 (ip), vehicle: Klucel (hydroxypropylcellulose) (HPC)): 155 % of control and 161 % of control

COc1cc(-c2ccc(O)cc2)c(OC)c(O)c1-c1ccc(O)cc1
T/C (dose: 0.15 mg/kg/injection, schedule: Q01DX009 (ip), vehicle: saline): 90 % of control | T/C (dose: 0.3 mg/kg/injection, schedule: Q01DX009 (ip), vehicle: saline): 90 % of control | T/C (dose: 0.6 mg/kg/injection, schedule: Q01DX009 (ip), vehicle: saline): 107 % of control | T/C (dose: 1.2 mg/kg/injection, schedule: Q01DX009 (ip), vehicle: saline): 89 % of control

CC[n+]1c2ccc(C)cc2nc2c3ccccc3c(N)cc21
T/C (dose: 5.0 mg/kg/injection, schedule: Q01DX009 (ip), vehicle: saline): 110 % of control | T/C (dose: 10.0 mg/kg/injection, schedule: Q01DX009 (ip), vehicle: saline): 106 % of control | T/C (dose: 20.0 mg/kg/injection, schedule: Q01DX009 (ip), vehicle: saline): 99 % of control

C1CC2CC1C13OC1CC1OC213 (configuration not stated)
T/C (dose: 100.0 mg/kg/injection, schedule: Q04DX002 (ip), vehicle: Klucel (hydroxypropylcellulose) (HPC)): 104 % of control | T/C (dose: 200.0 mg/kg/injection, schedule: Q04DX002 (ip), vehicle: Klucel (hydroxypropylcellulose) (HPC)): 105 % of control | T/C (dose: 400.0 mg/kg/injection, schedule: Q04DX002 (ip), vehicle: Klucel (hydroxypropylcellulose) (HPC)): 111 % of control

COc1ccccc1NC(=O)c1cc2cc(Br)ccc2cc1O
T/C [4]: 100 % of control | T/C [8]: 102 % of control | T/C [9]: 108 % of control

CCC1(c2ccccc2)Nc2ccccc2C1=Nc1ccccc1 (configuration not stated)
T/C (dose: 50.0 mg/kg/injection, schedule: Q04DX003 (ip), vehicle: saline with Tween-80): 100 % of control | T/C (dose: 100.0 mg/kg/injection, schedule: Q04DX003 (ip), vehicle: saline with Tween-80): 99 % of control | T/C (dose: 200.0 mg/kg/injection, schedule: Q04DX003 (ip), vehicle: saline with Tween-80): 90 % of control

Cc1ccc(NSC(Cl)(Cl)Cl)cc1
T/C (dose: 12.5 mg/kg/injection, schedule: Q01DX009 (ip), vehicle: saline): 100 % of control | T/C (dose: 12.5 mg/kg/injection, schedule: Q01DX009 (ip), vehicle: suspension in saline): 100 % of control | T/C (dose: 25.0 mg/kg/injection, schedule: Q01DX009 (ip), vehicle: saline): 100 % of control | T/C (dose: 25.0 mg/kg/injection, schedule: Q01DX009 (ip), vehicle: suspension in saline): 100 % of control | T/C [1]: 104 % of control and 123 % of control | T/C (dose: 50.0 mg/kg/injection, schedule: Q01DX009 (ip), vehicle: suspension in saline): 97 % of control | T/C (dose: 100.0 mg/kg/injection, schedule: Q01DX009 (ip), vehicle: suspension in saline): 87 % of control

CN(C)c1ccc(-c2cccc[n+]2C)cc1
T/C (dose: 1.5 mg/kg/injection, schedule: Q01DX009 (ip), vehicle: saline): 103 % of control | T/C (dose: 3.0 mg/kg/injection, schedule: Q01DX009 (ip), vehicle: saline): 108 % of control | T/C (dose: 6.0 mg/kg/injection, schedule: Q01DX009 (ip), vehicle: saline): 109 % of control

OC[C@H]1N[C@H](CO)[C@@H](O)[C@H]1O
T/C (dose: 60.0 mg/kg/injection, schedule: Q01DX005 (ip), vehicle: saline): 100 % of control | T/C (dose: 120.0 mg/kg/injection, schedule: Q01DX005 (ip), vehicle: saline): 99 % of control | T/C (dose: 240.0 mg/kg/injection, schedule: Q01DX005 (ip), vehicle: saline): 103 % of control

Cc1c2cnccc2c(C)c2c1c1ccccc1n2CCCCCCCCCCCCn1c2ccccc2c2c(C)c3cnccc3c(C)c21
T/C (dose: 25.0 mg/kg/injection, schedule: Q04DX002 (ip), vehicle: saline with Tween-80): 98 % of control | T/C (dose: 50.0 mg/kg/injection, schedule: Q04DX002 (ip), vehicle: saline with Tween-80): 100 % of control | T/C [10]: 100 % of control | T/C [11]: 98 % of control

COC(=O)c1cc(-c2cccc3ccccc23)[nH]c(=O)c1C#N
T/C [4]: 95 % of control | T/C [8]: 100 % of control
